{"source": "patent US20140065649A1", "about": "“TEST SYSTEMS AND METHODS FOR IDENTIFYING AND CHARACTERISING LIPID LOWERING DRUGS” (Sanofi, priority 2011, published 2014)", "key": {"[1]": {"experiment": "Study 1: serum 316P levels by sandwich ELISA", "format": "in vivo, Mesocricetus auratus", "details": "Study 1, 24-hour time point, 1, 3, and 10 mg/kg"}, "PCSK9": {"test_system": "PCSK9", "details": "in hamsters; cited from earlier work"}, "[2]": {"test_system": "normolipidemic male Syrian hamsters", "experiment": "Study 1: serum lipids after single s.c. injection in normolipidemic hamsters", "format": "in vivo, Mesocricetus auratus", "details": "for decrease in TC: Day 7"}, "[3]": {"test_system": "normolipidemic male Syrian hamsters", "experiment": "Study 2: safety parameters, body weight, liver weight and liver lipids", "protocol": "(§1) Male Syrian hamsters (strain RjHan: AURA in Study 1 and Bio™ F1B in Study 2), weighing between 90 and 100 g, were purchased from Janvier, Germany, and were allowed to acclimatize for a period of 7 days before entering the study.\n(§2) The investigation was divided into 2 studies. […] For each study, body weight and food consumption (weight changes in chow) were measured once a week, starting 1 week before dosing. […] In Study 1, samples were taken on Days −6, 1, 7, 14, 21, and 28; in Study 2, samples were taken on Days −7, 0, 3, and 7. Serum was obtained after centrifugation using Serum-Gel® tubes (Sarstedt, Nümbrecht, Germany).\n(§3) At the end of each study, animals were sacrificed in a nonfasted state and liver was immediately weighed and shock frozen on dry ice.\n(§4) All data are expressed as means±standard error of the mean (SEM) and were tested for normality and variance homogeneity before analysis. […] In Study 1, the vehicle-treated control versus treatment-naive control group was analyzed separately using 2-way ANOVA followed by the Dunnett test. A P value of ≦0.05 was considered statistically significant. Food consumption and safety parameters (AST, ALT, AP, and CK) were descriptively evaluated."}, "[4]": {"test_system": "PCSK9-mediated down-regulation of LDL uptake via LDLR in HepG2 cells", "details": "cited from earlier work"}, "[5]": {"target": "hPCSK9 D238 mutated (D238R) (Homo sapiens, UniProt Q8NBP7, D238R)", "sequence (Q8NBP7 153-692 D238R)": "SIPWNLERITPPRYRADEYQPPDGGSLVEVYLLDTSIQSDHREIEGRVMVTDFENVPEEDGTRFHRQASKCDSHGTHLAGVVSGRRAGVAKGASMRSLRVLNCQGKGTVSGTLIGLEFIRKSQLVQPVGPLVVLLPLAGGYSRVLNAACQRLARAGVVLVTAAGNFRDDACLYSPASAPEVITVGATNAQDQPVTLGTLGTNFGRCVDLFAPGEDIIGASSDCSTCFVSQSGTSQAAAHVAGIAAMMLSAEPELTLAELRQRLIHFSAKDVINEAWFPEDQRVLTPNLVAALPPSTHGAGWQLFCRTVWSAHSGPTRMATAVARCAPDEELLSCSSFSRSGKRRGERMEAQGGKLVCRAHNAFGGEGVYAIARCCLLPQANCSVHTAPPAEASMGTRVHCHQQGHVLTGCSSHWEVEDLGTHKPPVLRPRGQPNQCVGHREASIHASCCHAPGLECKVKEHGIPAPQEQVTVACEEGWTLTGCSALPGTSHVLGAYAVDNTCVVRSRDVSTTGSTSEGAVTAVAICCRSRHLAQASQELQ", "details": "cited from earlier work"}, "[6]": {"test_system": "normolipidemic male Syrian hamsters", "details": "Study 1, single s.c. 1, 3, or 10 mg/kg, data not shown"}, "[7]": {"test_system": "normolipidemic male Syrian hamsters", "experiment": "Study 2: serum lipids, atorvastatin twice daily with and without single s.c. 316P in normolipidemic hamsters", "format": "in vivo, Mesocricetus auratus"}, "[8]": {"test_system": "hepatic low density lipoprotein receptor (LDLR) protein", "experiment": "Study 2: hepatic LDLR levels by Western blot", "format": "in vivo, Mesocricetus auratus", "details": "Study 2, Western blot; 316P 10 mg/kg, atorvastatin 2×20 mg/kg"}, "humans": {"test_system": "humans", "details": "human phase 1 study, interim analysis, single i.v. administration; cited from earlier work"}, "[9]": {"test_system": "normolipidemic male Syrian hamsters", "details": "in vivo, sc", "protocol": "as §1, §2, §3, §4"}, "hPCSK9": {"target": "hPCSK9 (Homo sapiens, UniProt Q8NBP7)", "sequence (Q8NBP7 153-692)": "as the sequence (Q8NBP7 153-692 D238R) above, with R86D counted along it", "details": "cited from earlier work"}, "[10]": {"test_system": "human HepG2 or Huh7 cells", "details": "cited from earlier work"}, "dyslipidemic hamsters": {"test_system": "dyslipidemic hamsters", "details": "cited from earlier work"}, "[11]": {"details": "D238 mutated vs unmutated hPCSK9"}, "[12]": {"details": "Study 2, 316P single s.c. 10 mg/kg alone, sustained until Day 7"}, "[13]": {"details": "Study 2, atorvastatin alone 10 or 20 mg/kg p.o. twice daily, after 7 days"}}, "note": "pKd: −log10 of the molar value. Entries after “also recorded” stand apart in the source; their conditions may differ.", "data": [{"compound": "316P: fully human monoclonal anti-PCSK9 antibody comprising HCVR SEQ ID NO: 9 and LCVR SEQ ID NO: 10 [Antibody 316P]", "values": [{"measurement": "serum 316P concentration vs dose", "setting": "[1]", "result": "proportional to theoretical dosing levels"}, {"measurement": "binding affinity for PCSK9", "setting": "PCSK9", "result": "high binding affinity"}, {"measurement": "reduction in HDL-C", "setting": "[2]; Study 1, data not shown", "result": "statistically significant but less pronounced than the effect on LDL-C"}, {"measurement": "serum TG levels", "setting": "[2]; Study 1, every dose throughout the study", "result": "remained relatively constant"}, {"measurement": "decrease in TC", "setting": "[2]; Study 1, single s.c. 1 mg/kg", "result": 9, "unit": "%"}, {"measurement": "maximal effect on LDL-C (reduction)", "setting": "[2]; Study 1, single s.c. 1 mg/kg, after Day 1, vs PBS control", "result": 17, "unit": "%"}, {"measurement": "decrease in TC", "setting": "[2]; Study 1, single s.c. 3 mg/kg", "result": 17, "unit": "%"}, {"measurement": "maximal effect on LDL-C (reduction)", "setting": "[2]; Study 1, single s.c. 3 mg/kg, after Day 7, vs PBS control", "result": 27, "unit": "%"}, {"measurement": "decrease in TC", "setting": "[2]; Study 1, single s.c. 10 mg/kg", "result": 28, "unit": "%"}, {"measurement": "maximal effect on LDL-C (reduction)", "setting": "[2]; Study 1, single s.c. 10 mg/kg, after Day 7, vs PBS control", "result": 59, "unit": "%"}, {"measurement": "duration of dose-dependent decrease in LDL-C (TC and LDL-C)", "setting": "[2]; Study 1, single s.c. 1, 3, or 10 mg/kg", "result": "more than 2 weeks"}, {"measurement": "day on which LDL-C levels reach PBS control-treated levels (0% reduction)", "setting": "[2]; Study 1, single s.c. injection", "result": 28, "unit": "days"}, {"measurement": "HDL-C levels", "setting": "[2]; highest dose 10 mg/kg, data not shown", "result": "significant reduction"}, {"measurement": "tolerability", "setting": "[3]; Study 2", "result": "well tolerated"}, {"measurement": "effect on PCSK9-mediated down-regulation of LDL uptake via LDLR", "setting": "[4]", "result": "antagonizes"}, {"measurement": "decrease of T1/2", "setting": "[5]; [11]", "result": "> 30", "unit": "fold"}, {"measurement": "reduction in binding affinity", "setting": "[5]; [11]", "result": "> 400", "unit": "fold"}, {"measurement": "T1/2", "setting": "[5]; D238 mutated", "result": "~1", "unit": "min"}, {"measurement": "pKd", "setting": "[5]; D238 mutated, read-out: KD (binding affinity)", "result": "~6.39"}, {"measurement": "effects on safety parameters, relative liver weight, hepatic cholesterol, TG, phospholipid concentration", "setting": "[6]", "result": "no biologically relevant effects"}, {"measurement": "reduction in HDL-C", "setting": "[7]; Study 2, 316P 10 mg/kg (groups not specified), data not shown", "result": "statistically significant but less pronounced than the effect on LDL-C"}, {"measurement": "effect on serum LDL-C", "setting": "[7]; [12]", "result": "potent effect"}, {"measurement": "effect on serum TC", "setting": "[7]; [12]", "result": "potent effect"}, {"measurement": "level of hepatic LDLR expression compared with the PBS control groups", "setting": "[8]", "result": 149, "unit": "%"}, {"measurement": "level of hepatic LDLR protein versus PBS control", "setting": "[8]", "result": 1.5, "unit": "fold"}, {"measurement": "LDL-C reduction", "setting": "humans", "result": "exceeded 60%"}, {"measurement": "duration of LDL-C reduction", "setting": "humans", "result": 30, "unit": "days"}, {"measurement": "effects on relative liver weight, hepatic cholesterol, TG or phospholipid concentration", "setting": "[9]", "result": "no clinically relevant effects"}, {"measurement": "binding affinity for PCSK9", "setting": "hPCSK9; in humans", "result": "high binding affinity"}, {"measurement": "T1/2", "setting": "hPCSK9; unmutated hPCSK9", "result": "~37", "unit": "min"}, {"measurement": "pKd", "setting": "hPCSK9; unmutated hPCSK9, read-out: KD (binding affinity)", "result": "~9.00"}]}, {"compound": "CC(C)c1c(C(=O)Nc2ccccc2)c(-c2ccccc2)c(-c2ccc(F)cc2)n1CC[C@@H](O)C[C@@H](O)CC(=O)O", "note": "[atorvastatin]", "values": [{"measurement": "ALT levels", "setting": "[3]; Study 2, atorvastatin 2×10 or 20 mg/kg", "result": "slight, clinically insignificant increase; also recorded: biologically relevant increase"}, {"measurement": "reduction in TG levels", "setting": "[7]; Study 2, atorvastatin 2×20 mg/kg, after 7 days of treatment", "result": 23, "unit": "%"}, {"measurement": "reduction of serum TG levels", "setting": "[7]; Study 2, atorvastatin alone 10 mg/kg or 20 mg/kg p.o. twice daily, after 7 days", "result": 23, "unit": "%"}, {"measurement": "effect on serum HDL-C", "setting": "[7]; [13]", "result": "no significant effect"}, {"measurement": "effect on serum LDL-C", "setting": "[7]; [13]", "result": "no significant effect"}, {"measurement": "effect on serum TC", "setting": "[7]; [13]", "result": "no significant effect"}]}, {"compound": "CC(C)c1nc(N(C)S(C)(=O)=O)nc(-c2ccc(F)cc2)c1/C=C/[C@@H](O)C[C@@H](O)CC(=O)O", "note": "[rosuvastatin]", "values": [{"measurement": "effect on the level of HNF1 alpha", "setting": "[10]", "result": "no appreciable effect"}, {"measurement": "increase in LDLR mRNA and protein", "setting": "[10]", "result": "≈ 2 fold"}, {"measurement": "increase in PCSK9 mRNA and protein", "setting": "[10]", "result": "≈ 3 fold"}, {"measurement": "hepatic LDLR levels", "setting": "dyslipidemic hamsters", "result": "reduced"}, {"measurement": "serum LDL-C levels", "setting": "dyslipidemic hamsters", "result": "slightly increased"}]}]}
